Source: patent publication US5840684A, “Glycopeptide antibiotic derivatives” (Eli Lilly and Company, priority 1995, dated 1998)
Values after ≈ are worked out from the molar mass of the structure shown.

What was measured:
[1] = tested on: Staphylococcus aureus S13E; format: cell-based
Protocol: (§1) The MIC's were determined using a standard broth micro-dilution assay.

[2] = tested on: Entercoccus faecium 180-1; experiment: broth micro-dilution MIC; format: cell-based
Protocol: as §1

Entercoccus faecium 276 = experiment: broth micro-dilution MIC; format: cell-based
Protocol: as §1

[3] = tested on: Staphylococcus aureus 446; experiment: broth micro-dilution MIC; format: cell-based
Protocol: as §1

[4] = tested on: Staphylococcus aureus 447; experiment: broth micro-dilution MIC; format: cell-based
Protocol: as §1

[5] = tested on: Staphylococcus aureus 491; experiment: broth micro-dilution MIC; format: cell-based
Protocol: as §1

[6] = tested on: Staphylococcus aureus SA1199A; experiment: broth micro-dilution MIC; format: cell-based
Protocol: as §1

[7] = tested on: Staphylococcus aureus SA1199; experiment: broth micro-dilution MIC; format: cell-based
Protocol: as §1

[8] = tested on: Staphylococcus aureus X400; experiment: broth micro-dilution MIC; format: cell-based
Protocol: as §1

[9] = tested on: Staphylococcus aureus X778; experiment: broth micro-dilution MIC; format: cell-based
Protocol: as §1

[10] = tested on: Streptococcus pyogenes C203; experiment: broth micro-dilution MIC; format: cell-based
Protocol: as §1

Entercoccus faecium 180 = experiment: broth micro-dilution MIC; format: cell-based; settings: Entercoccus faecium 180
Protocol: (§2) The formula I compounds have in vitro and in vivo activity against Gram-positive pathogenic bacteria. The MIC's were determined using a standard broth micro-dilution assay.

Entercoccus faecium 2041 = experiment: broth micro-dilution MIC; format: cell-based; settings: Entercoccus faecium 2041
Protocol: as §2

[11] = tested on: Enterococcus gallinarum 245; experiment: broth micro-dilution MIC; format: cell-based; settings: Enterococcus gallinarum 245
Protocol: as §2

[12] = tested on: Staphylococcus epidermidis 270; experiment: broth micro-dilution MIC; format: cell-based
Protocol: as §2

[13] = tested on: Staphylococcus haemolyticus 105; experiment: broth micro-dilution MIC; format: cell-based
Protocol: as §2

[14] = tested on: Staphylococcus haemolyticus 415; experiment: broth micro-dilution MIC; format: cell-based
Protocol: as §2

[15] = tested on: Streptococcus pneumoniae P1; experiment: broth micro-dilution MIC; format: cell-based
Protocol: as §2

Streptococcus pyogenes = experiment: mouse protection, experimentally-induced infection; format: in vivo; settings: mice infected with Streptococcus pyogenes, two doses
Streptococcus pneumoniae = experiment: mouse protection, experimentally-induced infection; format: in vivo; settings: mice infected with Streptococcus pneumoniae, two doses
[16] = tested on: vancomycin-resistant enterococci; experiment: broth micro-dilution, mean geometric MIC; format: cell-based, Enterococcus faecium and Enterococcus faecalis; settings: enterococci, 24-hour incubation
[17] = tested on: Staphylococcus aureus SA1199B; format: cell-based
Protocol: as §1

[18] = tested on: Staphylococcus aureus 489; experiment: broth micro-dilution MIC; format: cell-based
Protocol: as §1

[19] = tested on: vancomycin-susceptible enterococci; experiment: broth micro-dilution, mean geometric MIC; format: cell-based, Enterococcus faecium and Enterococcus faecalis; settings: enterococci, 24-hour incubation

Row | Compound | MIC [1] | MIC [2] | MIC (Entercoccus faecium 276) | MIC [3] | MIC [4] | MIC [5] | MIC [6] | MIC [7] | MIC [8] | MIC [9] | MIC [10] | MIC (Entercoccus faecium 2041) | MIC [11] | MIC [12] | MIC [13] | MIC [14] | MIC [15] | ED50 (Streptococcus pyogenes) | ED50 (Streptococcus pneumoniae) | mean geometric MIC, Vancomycin Resistant Strains [16] | also measured
1 | CCCCCCCCCOc1ccc(CNC2(C)CC(OC3C(Oc4c5cc6cc4Oc4ccc(cc4Cl)C(OC4CC(C)(N)C(O)C(C)O4)C4NC(=O)C(NC(=O)C6NC(=O)C(CC(N)=O)NC(=O)C(NC(=O)C(CC(C)C)NC)C(O)c6ccc(c(Cl)c6)O5)c5ccc(O)c(c5)-c5c(O)cc(O)cc5C(C(=O)O)NC4=O)OC(CO)C(O)C3O)OC(C)C2O)cc1 (stereo not shown) [Compound 8] | 8 mg/L (≈ 4.38 µM) | 0.5 mg/L (≈ 0.274 µM) | 4 mg/L (≈ 2.19 µM) | 2 mg/L (≈ 1.1 µM) | 8 mg/L (≈ 4.38 µM) | 4 mg/L (≈ 2.19 µM) | 2 mg/L (≈ 1.1 µM) | 2 mg/L (≈ 1.1 µM) | 8 mg/L (≈ 4.38 µM) | 8 mg/L (≈ 4.38 µM) | ≤ 0.06 mg/L | 4 mg/L (≈ 2.19 µM) | 8 mg/L (≈ 4.38 µM) | 4 mg/L (≈ 2.19 µM) | 8 mg/L (≈ 4.38 µM) | 8 mg/L (≈ 4.38 µM) | ≤ 0.06 mg/L | > 0.5 mg/kg/2 | 0.273 mg/kg/2 | 1.0 mg/L | MIC (Entercoccus faecium 180): 1 mg/L (≈ 0.548 µM)
2 | CNC(CC(C)C)C(=O)NC1C(=O)NC(CC(N)=O)C(=O)NC2C(=O)NC3C(=O)NC(C(=O)NC(C(=O)O)c4cc(O)cc(O)c4-c4cc3ccc4O)C(OC3CC(C)(N)C(O)C(C)O3)c3ccc(c(Cl)c3)Oc3cc2cc(c3OC2OC(CO)C(O)C(O)C2OC2CC(C)(NCc3ccc(Oc4cccc(Cl)c4)c([N+](=O)[O-])c3)C(O)C(C)O2)Oc2ccc(cc2Cl)C1O (stereo not shown) [Compound 87] | 0.5 mg/L (≈ 0.27 µM) | ≤ 0.06 mg/L | ≤ 0.06 mg/L | 1 mg/L (≈ 0.539 µM) | 0.5 mg/L (≈ 0.27 µM) | 2 mg/L (≈ 1.08 µM) | ≤ 0.06 mg/L | 2 mg/L (≈ 1.08 µM) | 1 mg/L (≈ 0.539 µM) | 2 mg/L (≈ 1.08 µM) | ≤ 0.06 mg/L | ≤ 0.06 mg/L | 2 mg/L (≈ 1.08 µM) | 1 mg/L (≈ 0.539 µM) | 1 mg/L (≈ 0.539 µM) | 2 mg/L (≈ 1.08 µM) | ≤ 0.06 mg/L | 0.054 mg/kg/2 | 0.027 mg/kg/2 | 0.71 mg/L | MIC [17]: 0.5 mg/L (≈ 0.27 µM); MIC [18]: 0.5 mg/L (≈ 0.27 µM); MIC (Entercoccus faecium 180): ≤ 0.06 mg/L; mean geometric MIC, Vancomycin Sensitive Strains [19]: 0.047 mg/L
3 | CCc1ccc(-c2ccc(CNC3(C)CC(OC4C(Oc5c6cc7cc5Oc5ccc(cc5Cl)C(OC5CC(C)(N)C(O)C(C)O5)C5NC(=O)C(NC(=O)C7NC(=O)C(CC(N)=O)NC(=O)C(NC(=O)C(CC(C)C)NC)C(O)c7ccc(c(Cl)c7)O6)c6ccc(O)c(c6)-c6c(O)cc(O)cc6C(C(=O)O)NC5=O)OC(CO)C(O)C4O)OC(C)C3O)cc2)cc1 (stereo not shown) [Compound 90] | 1 mg/L (≈ 0.56 µM) | ≤ 0.06 mg/L | 2 mg/L (≈ 1.12 µM) | 2 mg/L (≈ 1.12 µM) | 1 mg/L (≈ 0.56 µM) | 2 mg/L (≈ 1.12 µM) | 0.5 mg/L (≈ 0.28 µM) | 2 mg/L (≈ 1.12 µM) | 1 mg/L (≈ 0.56 µM) | 1 mg/L (≈ 0.56 µM) | ≤ 0.06 mg/L | 0.125 mg/L (≈ 0.07 µM) | 2 mg/L (≈ 1.12 µM) | 1 mg/L (≈ 0.56 µM) | 2 mg/L (≈ 1.12 µM) | 2 mg/L (≈ 1.12 µM) | ≤ 0.06 mg/L | 0.058 mg/kg/2 | 0.049 mg/kg/2 | 0.71 mg/L | MIC [17]: 1 mg/L (≈ 0.56 µM); MIC [18]: 2 mg/L (≈ 1.12 µM); MIC (Entercoccus faecium 180): 0.25 mg/L (≈ 0.14 µM); mean geometric MIC, Vancomycin Sensitive Strains [19]: 0.041 mg/L
4 | CN[C@H](CC(C)C)C(=O)N[C@H]1C(=O)N[C@@H](CC(N)=O)C(=O)N[C@H]2C(=O)N[C@H]3C(=O)N[C@H](C(=O)N[C@H](C(=O)O)c4cc(O)cc(O)c4-c4cc3ccc4O)[C@H](O[C@H]3C[C@](C)(N)[C@@H](O)[C@H](C)O3)c3ccc(c(Cl)c3)Oc3cc2cc(c3O[C@@H]2O[C@H](CO)[C@@H](O)[C@H](O)[C@H]2O[C@H]2C[C@](C)(NCc3ccc(Oc4ccc(Cl)cc4)c([N+](=O)[O-])c3)[C@@H](O)[C@H](C)O2)Oc2ccc(cc2Cl)[C@H]1O [Compound 94] | 2 mg/L (≈ 1.08 µM) | ≤ 0.06 mg/L | 0.125 mg/L (≈ 0.0674 µM) | 1 mg/L (≈ 0.539 µM) | 0.5 mg/L (≈ 0.27 µM) | 0.5 mg/L (≈ 0.27 µM) | ≤ 0.06 mg/L | 0.5 mg/L (≈ 0.27 µM) | 1 mg/L (≈ 0.539 µM) | 0.5 mg/L (≈ 0.27 µM) | ≤ 0.06 mg/L | ≤ 0.06 mg/L | 2 mg/L (≈ 1.08 µM) | 1 mg/L (≈ 0.539 µM) | 2 mg/L (≈ 1.08 µM) | 2 mg/L (≈ 1.08 µM) | ≤ 0.06 mg/L | 0.16 mg/kg/2 | 0.049 mg/kg/2 | 0.50 mg/L | MIC [17]: 2 mg/L (≈ 1.08 µM); MIC [18]: 2 mg/L (≈ 1.08 µM); mean geometric MIC, Vancomycin Sensitive Strains [19]: 0.041 mg/L
5 | CN[C@H](CC(C)C)C(=O)N[C@H]1C(=O)N[C@@H](CC(N)=O)C(=O)N[C@H]2C(=O)N[C@H]3C(=O)N[C@H](C(=O)N[C@H](C(=O)O)c4cc(O)cc(O)c4-c4cc3ccc4O)[C@H](O[C@H]3C[C@](C)(N)[C@@H](O)[C@H](C)O3)c3ccc(c(Cl)c3)Oc3cc2cc(c3O[C@@H]2O[C@H](CO)[C@@H](O)[C@H](O)[C@H]2O[C@H]2C[C@](C)(NCc3ccc(-c4ccc(C)cc4)cc3)[C@@H](O)[C@H](C)O2)Oc2ccc(cc2Cl)[C@H]1O [Compound 97] | – | ≤ 0.06 mg/L | ≤ 0.06 mg/L | 1 mg/L (≈ 0.564 µM) | 1 mg/L (≈ 0.564 µM) | 0.5 mg/L (≈ 0.282 µM) | ≤ 0.06 mg/L | 2 mg/L (≈ 1.13 µM) | 1 mg/L (≈ 0.564 µM) | – | ≤ 0.06 mg/L | ≤ 0.06 mg/L | 2 mg/L (≈ 1.13 µM) | 1 mg/L (≈ 0.564 µM) | 2 mg/L (≈ 1.13 µM) | 2 mg/L (≈ 1.13 µM) | ≤ 0.06 mg/L | 0.066 mg/kg/2 | 0.038 mg/kg/2 | 0.71 mg/L | MIC [17]: 1 mg/L (≈ 0.564 µM); mean geometric MIC, Vancomycin Sensitive Strains [19]: 0.054 mg/L
6 | CCCc1ccc(-c2ccc(CNC3(C)CC(OC4C(Oc5c6cc7cc5Oc5ccc(cc5Cl)C(OC5CC(C)(N)C(O)C(C)O5)C5NC(=O)C(NC(=O)C7NC(=O)C(CC(N)=O)NC(=O)C(NC(=O)C(CC(C)C)NC)C(O)c7ccc(c(Cl)c7)O6)c6ccc(O)c(c6)-c6c(O)cc(O)cc6C(C(=O)O)NC5=O)OC(CO)C(O)C4O)OC(C)C3O)cc2)cc1 (stereo not shown) [Compound 107] | 2 mg/L (≈ 1.11 µM) | ≤ 0.06 mg/L | 1 mg/L (≈ 0.555 µM) | 2 mg/L (≈ 1.11 µM) | 1 mg/L (≈ 0.555 µM) | 1 mg/L (≈ 0.555 µM) | ≤ 0.06 mg/L | 1 mg/L (≈ 0.555 µM) | 1 mg/L (≈ 0.555 µM) | 0.5 mg/L (≈ 0.278 µM) | ≤ 0.06 mg/L | 0.5 mg/L (≈ 0.278 µM) | 2 mg/L (≈ 1.11 µM) | 0.5 mg/L (≈ 0.278 µM) | 2 mg/L (≈ 1.11 µM) | 2 mg/L (≈ 1.11 µM) | ≤ 0.06 mg/L | 0.27 mg/kg/2 | 0.092 mg/kg/2 | 0.59 mg/L | MIC [17]: 2 mg/L (≈ 1.11 µM); MIC [18]: 1 mg/L (≈ 0.555 µM); MIC (Entercoccus faecium 180): 0.125 mg/L (≈ 0.0694 µM); mean geometric MIC, Vancomycin Sensitive Strains [19]: 0.082 mg/L
7 | CNC(CC(C)C)C(=O)NC1C(=O)NC(CC(N)=O)C(=O)NC2C(=O)NC3C(=O)NC(C(=O)NC(C(=O)O)c4cc(O)cc(O)c4-c4cc3ccc4O)C(OC3CC(C)(N)C(O)C(C)O3)c3ccc(c(Cl)c3)Oc3cc2cc(c3OC2OC(CO)C(O)C(O)C2OC2CC(C)(NCc3ccc(OCCCc4ccccc4)cc3)C(O)C(C)O2)Oc2ccc(cc2Cl)C1O (stereo not shown) [Compound 223] | 0.5 mg/L (≈ 0.275 µM) | ≤ 0.06 mg/L | – | – | 0.5 mg/L (≈ 0.275 µM) | – | ≤ 0.06 mg/L | 2 mg/L (≈ 1.1 µM) | 1 mg/L (≈ 0.55 µM) | 1 mg/L (≈ 0.55 µM) | ≤ 0.06 mg/L | ≤ 0.06 mg/L | 1 mg/L (≈ 0.55 µM) | 0.5 mg/L (≈ 0.275 µM) | 1 mg/L (≈ 0.55 µM) | 1 mg/L (≈ 0.55 µM) | ≤ 0.06 mg/L | < 0.031 mg/kg/2 | < 0.031 mg/kg/2 | 0.79 mg/L | MIC [17]: 1 mg/L (≈ 0.55 µM); MIC [18]: 1 mg/L (≈ 0.55 µM); MIC (Entercoccus faecium 180): ≤ 0.06 mg/L; mean geometric MIC, Vancomycin Sensitive Strains [19]: 0.055 mg/L
